# Measured values as given in patent US7273880B2, “Selective NPY (Y5) antagonists” (H. Lunbeck A/S, priority 1999, dated 2007).
# Like-named read-outs stand apart in the source and are kept apart here.
# What was measured:
# [1] = target: T1, human Y5 receptor (h NPY-5) (Homo sapiens, UniProt Q15761); test: Functional assay: radioimmunoassay of cAMP; format: cell-based; conditions: functional antagonism, forskolin-stimulated cAMP, cells stably transfected with human Y5
# T1 construct: expressed in transfected cells; host or cells: mouse fibroblast LM(tk-) cells, e.g. L-hY5-7 (ATCC CRL-11995)
# T1 sequence (Q15761 1-445): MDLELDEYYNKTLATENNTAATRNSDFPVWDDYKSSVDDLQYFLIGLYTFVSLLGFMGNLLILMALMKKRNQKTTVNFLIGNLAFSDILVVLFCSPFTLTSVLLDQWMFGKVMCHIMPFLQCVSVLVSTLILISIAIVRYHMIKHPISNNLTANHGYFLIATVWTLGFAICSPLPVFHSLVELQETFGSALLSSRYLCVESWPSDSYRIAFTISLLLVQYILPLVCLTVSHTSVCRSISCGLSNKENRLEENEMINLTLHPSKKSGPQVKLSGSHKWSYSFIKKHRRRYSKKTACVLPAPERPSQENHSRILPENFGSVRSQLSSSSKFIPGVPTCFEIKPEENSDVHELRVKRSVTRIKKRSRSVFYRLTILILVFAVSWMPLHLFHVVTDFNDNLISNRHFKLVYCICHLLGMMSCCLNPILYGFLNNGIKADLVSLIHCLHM
# Protocol: LM(tk-) cells stably transfected with the human Y5 receptor were routinely converted from an adherent monolayer to a viable suspension. Adherent cells were harvested with trypsin at the point of confluence, resuspended in a minimal volume of complete DMEM for a cell count, and further diluted to a concentration of 10^6 cells/ml in suspension media (10% bovine calf serum, 10% 10× Medium 199 (Gibco), 9 mM NaHCO3, 25 mM glucose, 2 mM L-glutamine, 100 units/ml penicillin/100 μg/ml streptomycin, and 0.05% methyl cellulose). The cell suspension was maintained in a shaking incubator at 37° C., 5% CO2 for 24 hours. Membranes harvested from cells grown in this manner may be stored as large, uniform batches in liquid nitrogen. Alternatively, cells may be returned to adherent cell culture in complete DMEM by distribution into 96-well microtiter plates coated with poly-D-lysine (0.01 mg/ml) followed by incubation at 37° C., 5% CO2 for 24 hours. Cells prepared in this manner yielded a robust and reliable NPY-dependent response in cAMP radio-immunoassays as further described hereinbelow.
# Stably transfected cells were seeded into 96-well microtiter plates and cultured until confluent. To reduce the potential for receptor desensitization, the serum component of the media was reduced to 1.5% for 4 to 16 hours before the assay. Cells were washed in Hank's buffered saline, or HBS (150 mM NaCl, 20 mM HEPES, 1 mM CaCl2, 5 mM KCl, 1 mM MgCl2, and 10 mM glucose) supplemented with 0.1% bovine serum albumin plus 5 mM theophylline and pre-equilibrated in the same solution for 20 min at 37° C. in 5% CO2. Cells were then incubated 5 min with 10 μM forskolin and various concentrations of receptor-selective ligands. The assay was terminated by the removal of HBS and acidification of the cells with 100 mM HCl. Intracellular cAMP was extracted and quantified with a modified version of a magnetic bead-based radioimmunoassay (Advanced Magnetics, Cambridge, Mass.). The final antigen/antibody complex was separated from free ^125I-cAMP by vacuum filtration through a PVDF filter in a microtiter plate (Millipore, Bedford, Mass.). Filters were punched and counted for ^125I in a Packard gamma counter. Binding data were analyzed using nonlinear regression and statistical techniques available in the GraphPAD Prism package (San Diego, Calif.).
# [2] = target: hNPY-1,2,4 (human Y1, Y2, Y4 receptors); test: Radioligand binding to membranes, cloned human Y1, Y2 and Y4 receptors; conditions: one bound given for all three
# Outline: (§1)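 Competition binding on membranes from stably transfected 293 or LM(tk-) cells, with 0.08 nM ¹²⁵I-PYY in pH 7.4 HEPES buffer plus 0.1% BSA, 120 min at 30 °C, filtration and counting. Nonspecific binding defined by 300 nM human NPY, or 100 nM human PP for Y4; nonlinear regression.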
# [3] = target: T2, human Y5 receptor (hNPY-5) (Homo sapiens, UniProt Q15761); test: Radioligand binding to membranes, cloned human Y5 receptor
# T2 construct: expressed in transfected cells; host or cells: mouse fibroblast LM(tk-) cells, e.g. L-hY5-7 (ATCC CRL-11995)
# T2 sequence (Q15761 1-445): T1 sequence (Q15761 1-445)
# Outline: as §1
# satiated rats = conditions: direct injection into the hypothalamus, 4-hour period; cited from earlier work
# [4] = binding Ki as repeated in Table 4, read-out: Ki (h NPY-5)
# [5] = cloned human NPY Y5 receptor, radioligand competition binding, Tables 1-3, read-out: Ki, nM hNPY-5
Molecule,Kb [1],Ki [2],melting point,"Ki [3, 4]","Ki [3, 5]",increase of food intake (satiated rats)
"O=S(=O)(NCCCCCNc1nc2c(s1)CCCc1ccc(F)cc1-2)c1cccc2ccccc12 [Example 4, 1-Aza-9-fluoro-4,5-dihydro-2-(5-(1-naphthyl)sulfonyl-amino)-pentylamino-3-thia-benzo[e]azulene]",2.51 nM,> 10000 nM,–,19.5 nM,19.5 nM,–
"CS(=O)(=O)NC[C@H]1CC[C@H](Nc2nc3c(s2)CCCc2ccc(F)cc2-3)CC1 [Example 11, trans-1-Aza-9-fluoro-4,5-dihydro-2-(4-(methyl-sulfonylamino-methyl)cyclohexyl)amino-3-thia-benzo[e]azulene]",3.16 nM,> 10000 nM,–,6.4 nM,6.4 nM,–
"NS(=O)(=O)N[C@H]1CC[C@H](CNc2nc3c(s2)CCCc2ccc(F)cc2-3)CC1 [Example 44, trans-N2-(4-Aminosulfonylamino)cyclohexylmethyl-9-fluoro-5,6-dihydro-4H-benzo[6,7]cyclohepta[d][1,3]-thiazol-2-amine]",1.58 nM,> 10000 nM,180 to 182 °C,2.3 nM,2.3 nM,–
"NPY: peptide neurotransmitter neuropeptide Y, a 36 amino acid member of the pancreatic polypeptide family",–,–,–,–,–,up to 10 fold

# The next lines start with results.
Kb [1],Ki [2],melting point,"Ki [3, 4]","Ki [3, 5]",Molecule,increase of food intake (satiated rats)
12.6 nM,> 10000 nM,60 to 65 °C,2.1 nM,2.1 nM,"CN(C)S(=O)(=O)NC[C@H]1CC[C@H](Nc2nc3c(s2)CCCc2ccc(F)cc2-3)CC1 [Example 1, trans-N2-(4-Dimethylaminosulfonylaminomethyl)-cyclohexyl-9-fluoro-5,6-dihydro-4H-benzo[6,7]-cyclohepta[d][1,3]-thiazol-2-amine]",–
3.16 nM,> 10000 nM,–,4.5 nM,4.5 nM,"O=S(=O)(NCCCCCNc1nc2c(s1)CCCc1ccc(F)cc1-2)c1ccccc1F [Example 3, 1-Aza-9-fluoro-2-(5-(2-fluorophenyl)sulfonylamino)-pentylamino-4,5-dihydro-3-thia-benzo[e]azulene]",–
5.01 nM,> 10000 nM,–,0.3 nM,5.8 nM,"O=S(=O)(CC(F)(F)F)NCCCCCNc1nc2c(s1)CCCc1ccc(F)cc1-2 [Example 20, 1-Aza-9-fluoro-2-(5-(2-trifluoroethyl)sulfonylamino)-pentylamino-4,5-dihydro-3-thia-benzo [e]azulene]",–
15.8 nM,> 10000 nM,–,4.4 nM,4.4 nM,"CS(=O)(=O)N[C@H]1CC[C@H](CNc2nc3c(s2)CCCc2ccc(F)cc2-3)CC1 [Example 43, trans-N2-(4-Methylsulfonylamino)cyclohexylmethyl-9-fluoro-5,6-dihydro-4H-benzo[6,7]cyclohepta[d][1,3]-thiazol-2-amine]",–
